pEC50, pIC50: −log10 of the molar value. Where two headings read alike, the source gives them in different places.

Drawing on patent publication US8987195B2 (priority 2012, dated 2015), this text covers EC50 and IC50 for twelve molecules.

Test [1] concerns HCV genotype 1b replicon. Kind of test: HCV replicon assay, genotype 1b replicon EC50. The test is classed as cell-based, Hepatitis C virus. The settings on record: Hepatitis C virus, HCV replicon, genotype 1b, read-out: EC50 [gt-1b]. The essentials: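 Readout was replicon RNA copy number, by 32P-probe protection or TaqMan normalized to cellular cyclophilin A RNA, or luciferase activity for luciferase:Neo^r fusion lines. Cells were exposed to serially diluted compound for 24-48 hours without G418, then washed and lysed. EC50 derived from four-parameter fit relative to DMSO.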

Test [2] has as its target HCV NS3/4A protease genotype 1b (Hepatitis C virus genotype 1b, UniProt P26663). The experiment in a line: HCV NS3/4A protease time-resolved fluorescence (TRF) assay, Ki against genotype 1b. The test is classed as biochemical. The conditions noted are these: IC50 [gt-1b], NS3/4A protease TRF assay, genotype 1b enzyme 0.2 nM. The essentials: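 Enzyme 0.2 nM 1b / 0.4 nM A156T / 0.025 nM 3a; 30 min preinc. w/ cpd; 25 nM TRF peptide; 2.5 h RT; ex 340/em 615 time-delayed; 4-param IC50 → Ki = IC50/(1+[S]/KM).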

One may read the pEC50 as −log10 of the EC50, conventionally taken in molar units. Usually pIC50 stands for −log10 of the IC50, conventionally taken in molar units. For the molecule `CCc1nc2ccc(OC)cc2c2c1O[C@]1(CC2)C[C@H]2C(=O)N[C@]3(C(=O)NS(=O)(=O)C4(C)CC4)C[C@H]3/C=C\CCCCC[C@H](NC(=O)c3cc[nH]n3)C(=O)N2C1` [Example 469, (2R,6S,12Z,13aS,14aR,16aS)-5′-ethyl-9′-methoxy-N-[(1-methylcyclopropyl)sulfonyl]-5,16-dioxo-6-[(1H-pyrazol-3-ylcarbonyl)amino]-1,1′,2′,6,7,8,9,10,11,13a,14,15,16,16a-tetradecahydrospiro[cyclopropa[e]pyrrolo[1,2-a][1,4]diazacyclopentadecine-2,3′-pyrano[2,3-c]quinoline]-14a(5H)-carboxamide], the pEC50 in test [1] is 7.31. This molecule also gave a pIC50 in test [2] of 10.80.

Take `CCc1nc2ccc(OCCN3CCOCC3)cc2c2c1O[C@]1(CC2)C[C@H]2C(=O)N[C@]3(C(=O)NS(=O)(=O)C4(C)CC4)C[C@H]3/C=C\CCCCC[C@H](NC(=O)OC(C)(C)C)C(=O)N2C1` [Example 470, tert-butyl {(2R,6S,12Z,13aS,14aR,16aS)-5′-ethyl-14a-{[(1-methylcyclopropyl)sulfonyl]carbamoyl}-9′-[2-(morpholin-4-yl)ethoxy]-5,16-dioxo-1,1′,2′,5,6,7,8,9,10,11,13a,14,14a,15,16,16a-hexadecahydrospiro[cyclopropa[e]pyrrolo[1,2-a][1,4]diazacyclopentadecine-2,3′-pyrano[2,3-c]quinolin]-6-yl}carbamate]: the negative logarithm of the EC50 (pEC50) in test [1] is 8.24. The same molecule gave a pIC50 in test [2] of 10.96.

Take `CC(C)COC(=O)N[C@H]1CCCCC/C=C\[C@@H]2C[C@@]2(C(=O)NS(=O)(=O)C2(C)CC2)NC(=O)[C@@H]2C[C@]3(CCc4c(c(C(F)(F)F)nc5ccc(OCCN6CCOCC6)cc45)O3)CN2C1=O` [Example 471, 2-methylpropyl [(2R,6S,12Z,13aS,14aR,16aS)-14a-{[(1-methylcyclopropyl)sulfonyl]carbamoyl}-9′-[2-(morpholin-4-yl)ethoxy]-5,16-dioxo-5′-(trifluoromethyl)-1,1′,2′,5,6,7,8,9,10,11,13a,14,14a,15,16,16a-hexadecahydrospiro[cyclopropa[e]pyrrolo[1,2-a][1,4]diazacyclopentadecine-2,3′-pyrano[2,3-c]quinolin]-6-yl]carbamate]: in test [1] (HCl salt), the pEC50 is 8.51. Further, in test [2] (HCl salt), the pIC50 was 10.68.

`CC(C)(C)COC(=O)N[C@H]1CCCCC/C=C\[C@@H]2C[C@@]2(C(=O)NS(=O)(=O)C2(C)CC2)NC(=O)[C@@H]2C[C@]3(CCc4c(c(C(F)(F)F)nc5ccc(OCCN6CCOCC6)cc45)O3)CN2C1=O` [Example 472, 2,2-dimethylpropyl [(2R,6S,12Z,13aS,14aR,16aS)-14a-{[(1-methylcyclopropyl)sulfonyl]carbamoyl}-9′-[2-(morpholin-4-yl)ethoxy]-5,16-dioxo-5′-(trifluoromethyl)-1,1′,2′,5,6,7,8,9,10,11,13a,14,14a,15,16,16a-hexadecahydrospiro[cyclopropa[e]pyrrolo[1,2-a][1,4]diazacyclopentadecine-2,3′-pyrano[2,3-c]quinolin]-6-yl]carbamate]: the pEC50 in test [1] (HCl salt) is 8.46. The pIC50 in test [2] (HCl salt) was 10.70.

Consider `COCC1(S(=O)(=O)NC(=O)[C@@]23C[C@H]2/C=C\CCCCC[C@H](NC(=O)OCC(C)C)C(=O)N2C[C@@]4(CCc5c(c(C(F)(F)F)nc6ccc(OC)cc56)O4)C[C@H]2C(=O)N3)CC1` [Example 473, 2-methylpropyl [(2R,6S,12Z,13aS,14aR,16aS)-9′-methoxy-14a-({[1-(methoxymethyl)cyclopropyl]sulfonyl}carbamoyl)-5,16-dioxo-5′-(trifluoromethyl)-1,1′,2′,5,6,7,8,9,10,11,13a,14,14a,15,16,16a-hexadecahydrospiro[cyclopropa[e]pyrrolo[1,2-a][1,4]diazacyclopentadecine-2,3′-pyrano[2,3-c]quinolin]-6-yl]carbamate], for which the pEC50 in test [1] is 8.64. In test [2], the negative logarithm of the IC50 (pIC50) was 10.51.

As to `CC(C)[C@H](C)OC(=O)N[C@H]1CCCCC/C=C\[C@@H]2C[C@@]2(C(=O)NS(=O)(=O)C2(C)CC2)NC(=O)[C@@H]2C[C@]3(CCc4c(c(C(F)(F)F)nc5ccc(OCCN6CCOCC6)cc45)O3)CN2C1=O` [Example 474, (2S)-3-methylbutan-2-yl [(2R,6S,12Z,13aS,14aR,16aS)-14a-{[(1-methylcyclopropyl)sulfonyl]carbamoyl}-9′-[2-(morpholin-4-yl)ethoxy]-5,16-dioxo-5′-(trifluoromethyl)-1,1′,2′,5,6,7,8,9,10,11,13a,14,14a,15,16,16a-hexadecahydrospiro[cyclopropa[e]pyrrolo[1,2-a][1,4]diazacyclopentadecine-2,3′-pyrano[2,3-c]quinolin]-6-yl]carbamate], in test [1], the pEC50 is 8.76. The pIC50 in test [2] was 10.48.

Consider `CCCOC(=O)N[C@H]1CCCCC/C=C\[C@@H]2C[C@@]2(C(=O)NS(=O)(=O)C2(C)CC2)NC(=O)[C@@H]2C[C@]3(CCc4c(c(C(F)F)nc5ccc(OC)cc45)O3)CN2C1=O` [Example 475, propyl [(2R,6S,12Z,13aS,14aR,16aS)-5′-(difluoromethyl)-9′-methoxy-14a-{[(1-methylcyclopropyl)sulfonyl]carbamoyl}-5,16-dioxo-1,1′,2′,5,6,7,8,9,10,11,13a,14,14a,15,16,16a-hexadecahydrospiro[cyclopropa[e]pyrrolo[1,2-a][1,4]diazacyclopentadecine-2,3′-pyrano[2,3-c]quinolin]-6-yl]carbamate], for which the pEC50 in test [1] (K+ salt) was 8.62. For the same molecule, in test [2] (K+ salt), the pIC50 was 11.30.

As to `COCC1(S(=O)(=O)NC(=O)[C@@]23C[C@H]2/C=C\CCCCC[C@H](NC(=O)OC(C)(C)C)C(=O)N2C[C@@]4(CCc5c(c(C(F)F)nc6ccc(OC)cc56)O4)C[C@H]2C(=O)N3)CC1` [Example 476, tert-butyl [(2R,6S,12Z,13aS,14aR,16aS)-5′-(difluoromethyl)-9′-methoxy-14a-({[1-(methoxymethyl)cyclopropyl]sulfonyl}carbamoyl)-5,16-dioxo-1,1′,2′,5,6,7,8,9,10,11,13a,14,14a,15,16,16a-hexadecahydrospiro[cyclopropa[e]pyrrolo[1,2-a][1,4]diazacyclopentadecine-2,3′-pyrano[2,3-c]quinolin]-6-yl]carbamate], the pEC50 in test [1] is 8.36. Also, the pIC50 in test [2] is 10.92.

In the case of `CC[C@H](C)OC(=O)N[C@H]1CCCCC/C=C\[C@@H]2C[C@@]2(C(=O)NS(=O)(=O)C2(COC)CC2)NC(=O)[C@@H]2C[C@]3(CCc4c(c(C(F)F)nc5ccc(OC)cc45)O3)CN2C1=O` [Example 477, (2S)-butan-2-yl [(2R,6S,12Z,13aS,14aR,16aS)-5′-(difluoromethyl)-9′-methoxy-14a-({[1-(methoxymethyl)cyclopropyl]sulfonyl}carbamoyl)-5,16-dioxo-1,1′,2′,5,6,7,8,9,10,11,13a,14,14a,15,16,16a-hexadecahydrospiro[cyclopropa[e]pyrrolo[1,2-a][1,4]diazacyclopentadecine-2,3′-pyrano[2,3-c]quinolin]-6-yl]carbamate], the pEC50 in test [1] (K+ salt) is 8.30. The negative logarithm of the IC50 (pIC50) in test [2] (K+ salt) is 10.72.

As for `COCC1(S(=O)(=O)NC(=O)[C@@]23C[C@H]2/C=C\CCCCC[C@H](NC(=O)O[C@@H](C)C(C)C)C(=O)N2C[C@@]4(CCc5c(c(C(F)F)nc6ccc(OC)cc56)O4)C[C@H]2C(=O)N3)CC1` [Example 478, (2S)-3-methylbutan-2-yl [(2R,6S,12Z,13aS,14aR,16aS)-5′-(difluoromethyl)-9′-methoxy-14a-({[1-(methoxymethyl)cyclopropyl]sulfonyl}carbamoyl)-5,16-dioxo-1,1′,2′,5,6,7,8,9,10,11,13a,14,14a,15,16,16a-hexadecahydrospiro[cyclopropa[e]pyrrolo[1,2-a][1,4]diazacyclopentadecine-2,3′-pyrano[2,3-c]quinolin]-6-yl]carbamate], in test [1], the pEC50 is 8.24. In test [2], this molecule showed a pIC50 of 10.80.

As for `CCc1nc2ccc(OCCCOC)cc2c2c1O[C@]1(CC2)C[C@H]2C(=O)N[C@]3(C(=O)NS(=O)(=O)C4(C)CC4)C[C@H]3/C=C\CCCCC[C@H](NC(=O)OC(C)(C)C)C(=O)N2C1` [Example 479, tert-butyl [(2R,6S,12Z,13aS,14aR,16aS)-5′-ethyl-9′-(3-methoxypropoxy)-14a-{[(1-methylcyclopropyl)sulfonyl]carbamoyl}-5,16-dioxo-1,1′,2′,5,6,7,8,9,10,11,13a,14,14a,15,16,16a-hexadecahydrospiro[cyclopropa[e]pyrrolo[1,2-a][1,4]diazacyclopentadecine-2,3′-pyrano[2,3-c]quinolin]-6-yl]carbamate], in test [1], the negative logarithm of the EC50 (pEC50) was 8.98. In test [2], this molecule gave a negative-log IC50 (pIC50) of 11.30.

With `CCc1nc2ccc(OC)cc2c2c1O[C@]1(CC2)C[C@H]2C(=O)N[C@]3(C(=O)NS(=O)(=O)C4(C)CC4)C[C@H]3/C=C\CCCCC[C@H](NC(=O)c3sccc3C)C(=O)N2C1` [Example 480, (2R,6S,12Z,13aS,14aR,16aS)-5′-ethyl-9′-methoxy-N-[(1-methylcyclopropyl)sulfonyl]-6-{[(3-methylthiophen-2-yl)carbonyl]amino}-5,16-dioxo-1,1′,2′,6,7,8,9,10,11,13a,14,15,16,16a-tetradecahydrospiro[cyclopropa[e]pyrrolo[1,2-a][1,4]diazacyclopentadecine-2,3′-pyrano[2,3-c]quinoline]-14a(5H)-carboxamide], in test [1], the pEC50 is 9.57. Further, the pIC50 in test [2] is 11.22.
